Laboratory results taken from patent US20250345332A1, “APROCITENTAN FOR THE TREATMENT OF HYPERTENSION” (IDORSIA PHARMACEUTICALS LTD, priority 2022, published 2025).

System: patients with resistant hypertension
Test: PRECISION phase 3 trial: trough unattended automated office blood pressure (uAOBP)
Format: in vivo, human
Conditions: for office SBP at 4 weeks, difference versus placebo (SE): part 1 (primary endpoint); for least square mean (SE) change in office SBP at 4 weeks: part 1, on standardized background therapy; for office DBP decrease compared with placebo: week 4, part 1
Method: A single, randomized study with three sequential treatment parts was designed. The study design addressed both the 4-week placebo-controlled efficacy of 12.5 and 25 mg aprocitentan (Part 1) and the durability of its effects in long-term active treatment with 25 mg aprocitentan for a further 32 weeks (Part 2) followed by a 12-week placebo-controlled withdrawal period with patients re-randomized to 25 mg or placebo (Part 3) (see for example Danaietash P et al; Identifying and treating resistant hypertension in PRECISION—a randomized long-term clinical trial with Aprocitentan. J Clin Hypertension 2022 (in press). Patients with uncontrolled BP (measured as unattended automated office BP) despite the use of three or more antihypertensive medications for at least 1 year were screened. They were switched to a single-tablet triple fixed combination antihypertensive therapy for at least 4 weeks before entering a single-blind placebo run-in period. The 4-week placebo run-in period further excluded placebo responders. The randomization period consisted of 3 sequential parts: • 1) a 4-week double-blind part with aprocitentan 12.5 mg, 25 mg, or placebo (1:1:1 ratio); • 2) a 32-week single-blind part with aprocitentan 25 mg; and • 3) a 12-week randomized withdrawal part with aprocitentan 25 mg or placebo (1:1 ratio).
The standardized byckground treatment (SBT) is a single-tablet triple fixed combination of a CCB (amlodipine), an ARB (valsartan), and a diuretic (hydrochlorothiazide); two dose strengths are available: 5/160/25 mg and 10/160/25 mg, respectively. The maximum tolerated dose strength is selected at the investigator's discretion during the treatment period of the study and must be kept stable for at least 1 week prior to randomization continuing through the end of the DB part and again during the DB-WD part. Patients who are treated with a β-blocker at screening will continue their treatment throughout the study.
Study treatment and SBT are to be taken every morning except on the morning of study visit days, where treatment is administered after the completion of the visit assessments and the measurement of BP.
Trough uAOBP is measured at each visit with the same automated oscillometric sphygmomanometer (Microlife® WatchBP Office), which records 5 sitting BP readings (one per minute, first value excluded from the average), with the patient resting undisturbed, alone (unattended) in a quiet place for 5 minutes.
• Part 1: Double-blind, randomized parallel-group and placebo-controlled and lasts for 4 weeks. Subjects received (1:1:1 ratio), 25 or 12.5 mg aprocitentan, or placebo. • Part 2: Single-blind and single-arm, lasts for 32 weeks. All subjects received aprocitentan 25 mg. • Part 3: Double-blind withdrawal. All subjects completing part 2 and entering part 3 are re-randomized (1:1 ratio) to either aprocitentan 25 mg or placebo.
The primary efficacy endpoint is the change from baseline to Week 4 of DB treatment in mean trough SiSBP measured as uAOBP, where baseline is defined as the last available measurement before the start of DB treatment. […]
Other secondary efficacy endpoints include • changes from baseline to Week 4 and from DB-WD baseline to Week 40 in mean trough sitting diastolic blood pressure (SiDBP) measured as uAOBP. • and changes in systolic/diastolic BP measured by ABPM, including changes from baseline to Week 4 of DB treatment in 24-h mean SBP and DBP, changes from baseline to Week 4 in daytime and night-time mean SBP and DBP, changes from DB-WD baseline (Week 36) to Week 40 in 24-h mean SBP and DBP, and changes from DB-WD baseline (Week 36) to Week 40 in daytime and night-time mean SBP and DBP.

[1] = subjects with CKD stage 3-4, baseline to Week 4

In the case of NS(=O)(=O)Nc1ncnc(OCCOc2ncc(Br)cn2)c1-c1ccc(Br)cc1 [aprocitentan, {5-(4-bromo-phenyl)-6-[2-(5-bromo-pyrimidin-2-yloxy)-ethoxy]-pyrimidin-4-yl}-sulfamide], the “office SBP at 4 weeks, difference versus placebo (SE)” value (aprocitentan 12.5 mg) is reported as “statistically significant and clinically meaningful reduction”, the “least square mean (SE) change in office SBP at 4 weeks” value (aprocitentan 12.5 mg) is reported as −15.3 (0.9) mm Hg and the “office DBP decrease compared with placebo” value (aprocitentan 12.5 mg) is reported as −3.9 mm Hg. For the same molecule, the “office blood pressure reduction from baseline during part 2” value (aprocitentan 25 mg, 32-week single-blind part 2, patients previously on aprocitentan) was “maintained”, the “office SBP at 4 weeks, difference versus placebo (SE)” value (aprocitentan 25 mg) was “statistically significant and clinically meaningful reduction” and the “least square mean (SE) change in office SBP at 4 weeks” value (aprocitentan 25 mg) was −15.2 (0.9) mm Hg. The “office DBP decrease compared with placebo” value (aprocitentan 25 mg) was −4.5 mm Hg, the “office DBP increase with placebo compared with aprocitentan” value (part 3, after 4 weeks of withdrawal, aprocitentan 25 mg) was 5.2 mm Hg and the “difference 25 mg versus 12.5 mg in LS mean reduction, primary endpoint SiSBP” value [1] was “up to −5.88 mmHg”. For the same molecule, the “further decrease in SiSBP with 25 mg compared with 12.5 mg” value [1] was 44%.
